# Read-outs that look alike come from different tables or passages of the source.
# Legend:
# [1] = system: anti-rhGAA IgG antibodies; assay: Anti-rhGAA IgG antibody titers over time (ELISA, confirmed by radioimmunoprecipitation) in Pompe disease patients on ERT with TLD-MTX or on ERT monotherapy (comparators); format: in vivo, human
# Method: Methotrexate at 0.4 mg/kg body weight was administered subcutaneously (or orally if subcutaneous administration was not possible) on three consecutive days/MTX cycle/infusion; with the first three ERT infusions (i.e., on Days 0, 14, and 28 for patients infused EOW) for a total of 3 cycles. On the day of ERT infusion, methotrexate was administered 15 minutes (if subcutaneous) or 1 hour (if oral) before infusion initiation and again on the following 2 days. To exemplify the schedule, in a patient receiving ERT infusion EOW, methotrexate was administered on Days 0, 1, and 2 (first cycle); Days 14, 15, and 16 (second cycle), and Days 28, 29, and 30 (third cycle). As stated earlier, the dose and frequency of ERT could be increased at the discretion of the treating physician, based on patients' clinical and IAR status, in which case methotrexate cycles were adjusted accordingly (see FIG. 2 for details).
# Anti-rhGAA IgG antibodies were determined by Sanofi Genzyme (Framingham, MA, USA) using enzyme-linked immunosorbent assays and confirmed using radioimmunoprecipitation as described previously (Kishnani et al. (2006) J. Pediatr. 149:89-97). Antibody analyses were recommended to be performed at Days −1, 28, 56, 84, 112, 140, 168, 196, 224, 252, 280, 308, 336, and 364.
# rhGAA IgG titers were determined over time. Patients were classified into HSAT (≥51,200 on ≥2 occasions at or beyond 6 months on ERT), sustained intermediate titer (SIT) (≥12,800 and <51,200 within the first year of ERT), and low titer (LT; ≤6,400 within the first year of ERT) groups based on the longitudinal anti-rhGAA IgG titers. […] Medians and ranges were determined for baseline, peak, and last titers, although our focus was on longitudinal titers through time because sustained titers affect clinical response.
# The comparators received rhGAA alone. The GAA variant data and age at ERT initiation were compared with our cohort of TLD-MTX recipients. Immune responses over time were classified into HSAT, SIT, and LT as defined above, and time to seroconversion, peak titers, titers at Weeks 12, 24, and 52 were compared with our present cohort of TLD-MTX recipients.
# [2] = system: anti-rhGAA IgG antibodies; conditions: LOTS, cited from earlier work
# [3] = system: anti-rhGAA IgG antibodies; conditions: 10 LOPD patients, 4 years, annual titers; cited from earlier work
# [4] = system: anti-rhGAA IgG antibodies; conditions: cited from earlier work
substance,measurement,setting,value
Alglucosidase alfa [ERT monotherapy],Range of peak titers,[1]; HSAT comparators (5/37),"51,200-409,600"
same,Group median last titer,"[1]; HSAT group of 37 CRIM-positive IOPD comparators, median time on ERT Week 94","102,400"
same,Median peak titers,"[1]; HSAT group, IOPD","204,800 (range, 51,200-409,600)"
same,Median titers (Week 12),"[1]; HSAT group, IOPD","25,600"
same,Median titers (Week 24),"[1]; HSAT group, IOPD","25,600"
same,Median titers (Week 52),"[1]; HSAT group, IOPD","51,200"
same,Seroconversion week (median time to seroconversion),"[1]; HSAT group, IOPD",≤ 4 weeks
same,Percent of patients in HSAT group,"[1]; HSAT: titers >=51,200 on >=2 occasions at or beyond 6 months on ERT, IOPD",13.5%
same,Percent of patients who developed HSAT or SIT,"[1]; IOPD, comparator group n=37, TLD-MTX group n=14",32.4%
same,Range of peak titers,[1]; LT comparators (23/37 as printed),"200-12,800"
same,Group median last titer,"[1]; LT group of 37 CRIM-positive IOPD comparators, median time on ERT Week 130",400
same,Median peak titers,"[1]; LT group, IOPD","800 (range, 200-12,800)"
same,Median titers (Week 12),"[1]; LT group, IOPD",400
same,Median titers (Week 24),"[1]; LT group, IOPD",400
same,Seroconversion week (median time to seroconversion),"[1]; LT group, IOPD",8 weeks
same,Median titers (Week 52),"[1]; LT group, IOPD, seropositive titers <100 deemed 50",200
same,Percent of patients in LT group,"[1]; LT: titers <=6,400 within first year of ERT, IOPD",67.6%
same,Range of peak titers,[1]; SIT (IT) comparators (7/37),"12,800-51,000"
same,Group median last titer,"[1]; SIT group of 37 CRIM-positive IOPD comparators, median time on ERT Week 104","1,600"
same,Median peak titers,"[1]; SIT group, IOPD","25,600 (range, 12,800-51,200)"
same,Median titers (Week 12),"[1]; SIT group, IOPD","12,800"
same,Median titers (Week 24),"[1]; SIT group, IOPD","12,800"
same,Median titers (Week 52),"[1]; SIT group, IOPD","3,200"
same,Seroconversion week (median time to seroconversion),"[1]; SIT group, IOPD",4 weeks
same,Percent of patients in SIT group,"[1]; SIT: titers >=12,800 and <51,200 within first year of ERT, IOPD",18.9%
same,"Geometric mean titer, maximum","[2]; LOPD, Week 44","2,925"
same,"Geometric mean titer, last","[2]; LOPD, Week 78","1,607"
same,Median last titer,"[2]; LOPD, Week 78","1,600"
same,Median peak titer,"[2]; LOPD, median time 12 weeks of alglucosidase alfa therapy","6,400"
same,Peak IgG titer quartile,[2]; first quartile (n=17),"200-1,600"
same,Peak IgG titer quartile,[2]; fourth quartile (n=14),"25,600-819,200"
same,Peak IgG titer quartile,[2]; second quartile (n=12),"3,200"
same,Peak IgG titer quartile,[2]; third quartile (n=16),"6,400-12,800"
same,Highest antibody titer of any patient,[3],"≤ 25,600"
same,Percent of patients with high antibody titers,"[4]; CRIM-positive IOPD, 9 of 23, Banugaria et al. (2011)",39%
same,Percent of patients developing HSAT,[4]; CRIM-positive patients with IOPD,~40%
same,Percent of patients developing HSAT,[4]; patients with LOPD,10%
